Reference: patent US5843959A, “Methods and bicyclic polyamine compositions for the treatment of inflammation” (University of Florida Research Foundation, Inc., priority 1997, dated 1998)
Where “and” joins values, the source holds several entries; their conditions need not be identical. Equal entries are not always repeated. Entries after “also recorded” stand apart in the source; their conditions may differ.

Key:
[1] = system: BALB/c splenocytes stimulated with LPS; test: Mitogen response to LPS (B cell proliferation); format: cell-based, mouse (BALB/c)
Method: This study examined the potential immunomodulatory activities of PIP[4,4,4] on mouse spleen cells using in vitro techniques. The effect of the compound on the ability of murine splenocytes to respond to the […] mitogen concanavalin A (Con A) and the B cell mitogen lipopolysaccharide (LPS) was studied. […] In addition, the compound was tested for its effect on the mixed lymphocyte response (MLR). The MLR is an in vitro manifestation of cell-mediated immunity in which T cells respond to differences in major histocompatibility complex (MHC) class II molecules (Ia antigens) expressed on foreign or allogeneic leukocytes (primarily B cells and […]/monocytes).
a. Preparation of cells--Under sterile conditions, spleens were removed from BALB/c (H-2^d) and CBA/J (H-2^k) mice. BALB/c splenocytes were used as responder cells in the mitogen assays and the MLR assays, whereas CBA/J cells were used as stimulator cells in the MLR assays. […] Cells were exposed to various concentrations of the test compounds for the entire culture period. The initial dilutions in medium were filter sterilized to maintain aseptic conditions.
b. Mitogen assays--Con A and LPS were obtained from Sigma Chemical Co. (St. Louis, Mo., U.S.A.). 2×10^5 BALB/c splenocytes were added per well. […] Triplicate wells were set up in 96-well flat-bottom microtiter plates for all treated cultures and positive controls (100% of control) were performed in replicates of nine wells. Plates were incubated at 37° C. in a humidified CO2 incubator for 3 days, pulsed with 1 μCi ^3 H-TdR/well for 6-16 hours, harvested and counted in a liquid scintillation counter. All data were processed using Lotus 1-2-3 and SigmaPlot software.

[2] = system: phenylquinone (P.Q.) writhing; test: Analgesic activity, phenylquinone writhing; format: in vivo, mouse (ICR)
Method: The method of Siegmund et al [Proc. Soc. Exp. Biol. Med., Vol. 95, pages 729-731 (1957)] was used to measure the analgesic activity of PIP[4,4,4]. Groups of 10 male ICR mice weighing 22±2 g were employed. Various doses of test compound, dissolved in a vehicle of distilled water, were administered intraperitoneally. The control group received vehicle alone. […] The mean±SEM number of writhes in each treatment group was calculated and unpaired Student's t test was applied for comparison between vehicle and treated groups. Differences were considered significant when P<0.05.

[3] = system: adjuvant-induced arthritis
[4] = system: carrageenan-induced edema in rat paw; test: Inhibition of carrageenan-induced paw edema in rats
[5] = Solubility in the vehicle; format: physicochemical; conditions: distilled water
Method: PIP[4,4,4] was obtained as described above. Distilled water was used as the vehicle for in vivo testing. […] Commercially obtained chemicals used were indomethacin and hydrocortisone (Sigma, St. Louis, Mo., U.S.A.), aspirin (Miles Labs., Elkart, IN, U.S.A.), carrageenan (Tokyo Kasei Industry Co., Ltd.), Mycobacterium tuberculosis (Difco Labs., Detroit, Mich., U.S.A.) and carboxymethyl-cellulose (Wako Pure Chemical Industries, Osaka, Japan). Doses of all compounds used were calculated on the basis of the weight of the salt.

[6] = system: adjuvant-induced arthritis; test: Adjuvant-induced arthritis model in Lewis rats (Table 7); conditions: p.o. 5 days, DiPIPs 100 mg/kg, Voltaren and indomethacin 6 mg/kg
Method: Four groups consisting of 6 male Lewis rats weighing 150-200 g were injected subcutaneously at the base of the tail with 0.1 ml of CFA. Drugs to be assayed were administered 5 days beginning on the day of the adjuvant injection. The paw volume of the right and left rear paw of each rat were measured on the day of adjuvant injection and at regular intervals for 30 days thereafter.
The emulsion was injected subcutaneously at the base of the tail and induced the arthritic state. Measurements of paw volume were made for 30 days to monitor paw swelling. Drug treatment began on Day 0.
Four groups consisting of 10 male Lewis rats weighing 150-200 g were injected subcutaneously at the base of the tail with 0.1 ml of CFA. Drugs to be assayed were administered for 5 days beginning on the day of the adjuvant injection.

[7] = system: type II collagen-induced arthritis; test: Prevention of type II collagen-induced arthritis in mice; format: in vivo, mouse (DBA/1J)
Method: The purpose of this study was to test PIP[4,4,4] in an experimental model of arthritis in DBA/1J mice by observing the onset, duration and remission of inflammation utilizing type II collagen. Twenty male DBA/1J mice, equally divided into two groups of ten animals, were immunized with a single intradermal injection of native type II chick collagen (100 μg/animal, intradermally) in Complete Freund's Adjuvant (CFA) on Day 0. […] On Day 21, both groups received a challenge dose of type II collagen (100 μg/animal, intradermally at the base of the tail, in 50 μl CFA). Daily joint measurements were recorded once per day on Days 20-40. Joints were measured using a constant tension caliper (Mitutoyo Digimatic Thickness Gauge). All mice were measured before the start of the study (Day -1) to obtain baseline readings at three joints on the right and left hindlimb (paw thickness, ankle width and knee width) and two joints of the right and left forelimb (paw thickness and elbow width). […] Four of ten mice treated with PIP[4,4,4] died or were sacrificed in extremis, during the treatment period.

[8] = 100 mg/kg p.o. daily for 5 consecutive days
[9] = Day 19, individual rat, p.o. × 5: PIP[4,4,4] 100, hydrocortisone 30, indomethacin 5 mg/kg

Which results are given for `C(CCNCC1CCNCC1)CNCC1CCNCC1` [PIP[4,4,4], N,N'-Bis(4-piperidinylmethyl)-1,4-butanediamine]?
Proliferative response (CPM), Mean ± SD ([1]; LPS 25 μg/ml, drug 0.010 μm): 175516 ± 10793 CPM; Proliferative response (CPM), Mean ± SD ([1]; LPS 25 μg/ml, drug 0.100 μm): 174197 ± 23886 CPM; Proliferative response (CPM), Mean ± SD ([1]; LPS 25 μg/ml, drug 1.000 μm): 192921 ± 32628 CPM; Proliferative response (CPM), Mean ± SD ([1]; LPS 25 μg/ml, drug 10.000 μm): 187500 ± 8089 CPM; Proliferative response (CPM), Mean ± SD ([1]; LPS 25 μg/ml, drug 100.000 μm): 117804 ± 14014 CPM; Proliferative response (CPM), Mean ± SD ([1]; LPS 25 μg/ml, drug 1000.000 μm): 83427 ± 18281 CPM; activity at 0.01 µM ([1]; Mus musculus, Splenocyte, 72 h, LPS 25 μg/ml, drug 0.010 μm, read-out: % Control): 100%; activity at 0.1 µM ([1]; Mus musculus, Splenocyte, 72 h, LPS 25 μg/ml, drug 0.100 μm, read-out: % Control): 99%; activity at 1 µM ([1]; Mus musculus, Splenocyte, 72 h, LPS 25 μg/ml, drug 1.000 μm, read-out: % Control): 110%; activity at 10 µM ([1]; Mus musculus, Splenocyte, 72 h, LPS 25 μg/ml, drug 10.000 μm, read-out: % Control): 106%; activity at 100 µM ([1]; Mus musculus, Splenocyte, 72 h, LPS 25 μg/ml, drug 100.000 μm, read-out: % Control): 67%; activity at 1000 µM ([1]; Mus musculus, Splenocyte, 72 h, LPS 25 μg/ml, drug 1000.000 μm, read-out: % Control): 47%; Effect on LPS response (in words) ([1]; suppression in the 1-100 μm range): some inhibition of the LPS response; also recorded: some dose-dependent suppression; % Inhibition (writhing) ([2]; 100 mg/kg i.p.): 79%; # Writhes (X ± SEM) ([2]; 100 mg/kg i.p., P.Q. 2 mg/kg i.p. 30 min post dosing, **P < 0.01): 3 ± 1 # WRITHES; Analgesic activity (in words) ([2]; i.p., compared with vehicle control): exhibited analgesic activity; Acute and late phase swelling (in words) [3, 8]: reduced both part of the acute phase and inhibited the development of the late phase swelling in the contralateral paw; Signs of polyarthritis in the paws (in words) [3, 8]: did not prevent the appearance of signs of polyarthritis in the paws; Inhibition % B (5-0) ([3]; 5th day after 5 doses, p.o.: PIP[4,4,4] 100, hydrocortisone 30, indomethacin 5 mg/kg, >30% significant): 26%; Net swelling of paw volume A (1-0), average ([3]; Day 1 - Day 0, average, p.o. × 5: PIP[4,4,4] 100, hydrocortisone 30, indomethacin 5 mg/kg): 0.74 mL; Net swelling of paw volume B (5-0), average ([3]; Day 5 - Day 0, average, p.o. × 5: PIP[4,4,4] 100, hydrocortisone 30, indomethacin 5 mg/kg): 1.22 mL; Net swelling of paw volume B (5-0) ([3]; Day 5 - Day 0, individual rat, p.o. × 5: PIP[4,4,4] 100, hydrocortisone 30, indomethacin 5 mg/kg): 1.17 mL and 1.49 mL and 1.04 mL and 1.37 mL and 1.03 mL; Net swelling of paw volume C (5-1), average ([3]; Day 5 - Day 1, average, p.o. × 5: PIP[4,4,4] 100, hydrocortisone 30, indomethacin 5 mg/kg): 0.48 mL; Net swelling of paw volume C (5-1) ([3]; Day 5 - Day 1, individual rat, p.o. × 5: PIP[4,4,4] 100, hydrocortisone 30, indomethacin 5 mg/kg): 0.34 mL and 0.70 mL and 0.50 mL and 0.52 mL; Polyarthritis E (ears) [3, 9]: -; Polyarthritis N (noses) [3, 9]: -; Polyarthritis P (paws) [3, 9]: +; Polyarthritis T (tails) [3, 9]: -; B.W. Gain (18-0), average ([3]; average, p.o. × 5: PIP[4,4,4] 100, hydrocortisone 30, indomethacin 5 mg/kg): 25 g; Inhibition % A (1-0) ([3]; first day, after one dose, p.o.: PIP[4,4,4] 100, hydrocortisone 30, indomethacin 5 mg/kg, >30% significant): 11%; B.W. Gain (18-0) ([3]; individual rat, p.o. × 5: PIP[4,4,4] 100, hydrocortisone 30, indomethacin 5 mg/kg): 20 g and 35 g and 5 g and 30 g; Inhibition % C (5-1) ([3]; paw volume change Day 1 to Day 5, p.o. × 5: PIP[4,4,4] 100, hydrocortisone 30, indomethacin 5 mg/kg, >30% significant): 41%; Net swelling of paw volume D (14-0), average ([3]; untreated paw, Day 14 - Day 0, average, p.o. × 5: PIP[4,4,4] 100, hydrocortisone 30, indomethacin 5 mg/kg): 0.29 mL; Net swelling of paw volume D (14-0) ([3]; untreated paw, Day 14 - Day 0, individual rat, p.o. × 5: PIP[4,4,4] 100, hydrocortisone 30, indomethacin 5 mg/kg): 0.25 mL and 0.43 mL and 0.23 mL and 0.34 mL and 0.20 mL; Inhibition % D (14-0) ([3]; untreated paw, Day 14 relative to Day 0, p.o. × 5: PIP[4,4,4] 100, hydrocortisone 30, indomethacin 5 mg/kg, >30% significant): 36%; Inhibition % F (18-14) ([3]; untreated paw, Day 14 to Day 18, p.o. × 5: PIP[4,4,4] 100, hydrocortisone 30, indomethacin 5 mg/kg, >30% significant): 47%; Net swelling of paw volume E (18-0), average ([3]; untreated paw, Day 18 - Day 0, average, p.o. × 5: PIP[4,4,4] 100, hydrocortisone 30, indomethacin 5 mg/kg): 0.45 mL; Net swelling of paw volume E (18-0) ([3]; untreated paw, Day 18 - Day 0, individual rat, p.o. × 5: PIP[4,4,4] 100, hydrocortisone 30, indomethacin 5 mg/kg): 0.35 mL and 0.55 mL and 0.37 mL and 0.45 mL and 0.53 mL; Net swelling of paw volume F (18-14), average ([3]; untreated paw, Day 18 - Day 14, average, p.o. × 5: PIP[4,4,4] 100, hydrocortisone 30, indomethacin 5 mg/kg): 0.16 mL; Net swelling of paw volume F (18-14) ([3]; untreated paw, Day 18 - Day 14, individual rat, p.o. × 5: PIP[4,4,4] 100, hydrocortisone 30, indomethacin 5 mg/kg): 0.10 mL and 0.12 mL and 0.14 mL and 0.11 mL and 0.33 mL; Inhibition % E (18-0) ([3]; untreated paw, Day 18 relative to Day 0, p.o. × 5: PIP[4,4,4] 100, hydrocortisone 30, indomethacin 5 mg/kg, >30% significant): 40%; Weight gain reductions (in words) ([3]; vs vehicle-treated animals, 18 day study): did not affect weight gain reductions; Acute anti-inflammatory activity (in words) ([4]; 30 mg/kg intraperitoneally): significantly reducing the extent of carrageenan-induced paw edema; % Edema inhibition ([4]; vs vehicle control, aspirin 150 mg/kg p.o., hydrocortisone 25 mg/kg p.o., PIP[4,4,4] 30 mg/kg i.p., >30% significant): 58%; Solubility in the vehicle [5]: completely soluble; % FINAL INHIBITION ([6]; Day 28-0): 58%; FINAL DAY 28-0 (paw volume) [6]: .801; INITIAL DAY 14-0 (paw volume) [6]: .496; Toxicity of compound administration (in words) ([7]; 75 mg/kg i.p. daily, dosage decreased to 50 mg/kg on Day 26): overt toxicity; Day on which decrease in joint measurements first evident ([7]; i.p. daily from Day 20, 75 mg/kg): ≤ 25 days; Mice died or sacrificed in extremis ([7]; i.p. daily from Day 20, 75 then 50 mg/kg, during treatment period): Four of ten; Joint measurements / degree of inflammation (in words) ([7]; i.p. daily from Day 20, 75 then 50 mg/kg, vs saline control): Joint measurements decreased; also recorded: significantly less than that in mice treated with equal volumes of saline (control)
